In US20050058745A1, “Use of Labiatae herb preparations for extending the flavor shelf life of malt beverages” (priority 2003, published 2005):

Assays:
[1] = Sensory panel staling scaling of bottled standard American lager; conditions: 10 ppm (RA/CA: 5 ppm CA + 5 ppm RA)
Description: A standard American lager and a light lager were purchased commercially. The treatment bottles were opened, dosed, fobbed, crowned and inverted. The control bottles were opened, crowned and inverted. Dosing was performed as follows. One gram of pure antioxidant (corrected for actual purity) was dissolved in 100 mL ethanol and sonicated to make the antioxidant solutions of 1 weight/volume %. The volumes shown in Table 16 show the amount of the antioxidant solutions added to obtain a total of 10 ppm carnosic acid and/or rosmarinic acid in the final beverage formulations.
The sensory data were taken in the following manner. Each treatment sample was presented to the panelists one time each in two different sessions each at a different amount of aging time (5 vs. 10 days). Panelists rated the beers on a scale of 0-10, with 0 being fresh and 10 being most stale. Since the output of the panel as a whole was desired, and not any one individual panelist, the means of each treatment sample in each replicate groups were calculated and tabulated as in Table 17. Samples spiked with known amounts of off-flavors characteristic of the aged standard American lager were used as reference beers. This characterization was done in a separate descriptive session. The characteristic off-flavors in the pilot brewery beer were papery and leathery, and these were each spiked into fresh control beer at 0.75 and 1.5 times the typical flavor threshold.
Statistical analysis consisted of doing paired t-Tests on the treatment sample vs. the aged control sample (Table 18). One-tailed tests were used that probed the question whether the staling values of one treatment were lower than that of the other (e.g treatment vs. control). Confidence levels were reported along with p values.

[2] = DCIP redox potential of light beer during pasteurization; format: physicochemical; conditions: for preservation of redox potential during pasteurization: 20 ppm; for Redox Potential: +20 ppm
Description: Five bottles of a commercial light beer, 81 days old at the time of the experiment, but having been stored at 2° C. were used in this experiment. The following five treatments were prepared: • 1. An unpasteurized control was prepared by leaving one bottle unopened in the refrigerator until analysis. • 2. Another bottle was opened, 20 ppm carnosic acid was added from a solution made from pure material, and the bottle fobbed and crowned. This sample was also not pasteurized. • 3. A bottle was opened, fobbed to exclude air, and crowned. This sample is designated the No Addition Pasteurized Control. • 4. A bottle was opened and 20 ppm carnosic acid was added from a solution made from pure compound. The bottle was fobbed and crowned and subjected to pasteurization. • 5. A bottle was opened and 20 ppm of rosmarinic acid was added from a solution of pure compound. The bottle was fobbed and crowned and subjected to pasteurization. Treatments 3, 4, and 5 were immersed in an ambient temperature water bath and heated to 60° C. The approximate time to reach 60° C. from ambient was 12 minutes. The bottles remained at 60° C. for 12 minutes. They were then removed and cooled. All five treatments were analyzed by the DCIP-Redox method described in Example 4.

[3] = 3-Methylbutanal in headspace of aged beer; format: physicochemical; conditions: 20 ppm (RA + CA: 10 ppm each)
Description: The highly hopped beer from example 2 was treated with solutions of carnosic acid in ethanol, rosmarinic acid in ethanol or a mixture of carnosic acid and rosmarinic acid in ethanol as done previously. […] The bottles were fobbed to exclude air and crowned. • 3. “20 ppm CA+air” in which bottles were opened and 20 ppm CA added as above. These bottles received two puffs of air in the remaining headspace from a 25 mL bulb. They were crowned without fobbing • 4. “20 ppm RA” in which bottles were opened and 20 ppm rosmarinic acid added from a 2% solution. The bottles were fobbed and crowned. • 5. “20 ppm RA+air” which was done as in No. 4, with 20 ppm RA added. These bottles received the two puffs of air and were crowned without fobbing. • 6. “10 ppm RA+10 ppm CA” in which bottles were opened and 10 ppm each of carnosic and rosmarinic acids were added from pure solutions (178 μL of 2% solution per 12 oz bottle). Bottles were fobbed and crowned. • 7. “10 ppm RA+10 ppm CA+air” in which 10 ppm each of RA and CA was added. This treatment received two puffs of air and was not fobbed before closing. • 8. “Control+air” in which bottles were opened, given two puffs of air and crowned without fobbing. • 9. “Control” in which bottles were opened, fobbed and crowned. Treatments 2 through 9 were stored in a 40° C. hot room. At various times, bottles were opened and samples analyzed for phenylacetaldehyde and 3-methylbutanal by the method of “[…], et al. The results are shown in Table 19.

[4] = DCIP redox potential of highly hopped beer during aging at 40° C.; format: physicochemical; parameters: DCIP Redox Value: scale not given here; conditions: for effect on DCIP redox potential: highly hopped beer aged at 40° C.
Description: Dr. […] H2SO4 brought to 100 mL in a volumetric flask. Four drops of starch indicator were added, and the DCIP was titrated with 0.01; sodium thiosulfate. The concentration of DCIP in mg/dL was measured by multiplying the mL of titer by 14.5. De-ionized water was added to adjust the final concentration to 1.45 mg/mL. 250 μL of adjusted DCIP was added to the 10 mL of degassed beer, the flask swirled to mix, and a 1 min timer started. The beer/DCIP was poured into a 1 cm cuvette and placed in the spectrophotometer. The absorbance was read at exactly 1 minute. These analyses were done in triplicate and averaged. […] The bottle dosing methods used were the same as those described in Example 1. The following samples were made: • 1. 20 ppm Carnosic Acid • 2. 20 ppm Carnosic Acid plus Air • 3. 20 ppm Rosmarinic Acid • 4. 20 ppm Rosmarinic Acid plus Air • 5. 10 ppm Carnosic Acid+10 ppm Rosmarinic Acid • 6. 10 ppm Carnosic Acid+10 ppm Rosmarinic Acid+Air • 7. […] No Additions. Treatments 1 through 8 were put in a temperature regulated room set at 40° C. and maintained at ±1° C. At intervals of Zero time, 3 days, 7 days, 14 days, and 21 days, samples were withdrawn and Redox Potentials were measured by the method outlined in example 4. Color measurements were made using the L, a, b system on a Minolta Spectrophotometer model […], chroma and hue angle color measure units were recorded. DPPH radical scavenging numbers were measured using the following method. A de-ionized-H2O/EtOH buffer solution was prepared by dissolving 250 mg sodium citrate dihydrate and 10 g of absolute ethanol in 250 mL of deionized water. The solution was then titrated with 0.1 N Citric acid (6.404 g/L anhydrous citric acid) a drop at a time to reach a pH of between 4.35 and 4.5.

[5] = pasteurized (60° C. for 12 minutes)
[6] = 0 days at 40° C., + Air, 20 ppm (RA + CA: 10 ppm each)
[7] = 0 days at 40° C., no air, 20 ppm (CA + RA: 10 ppm each)
[8] = 3 days at 40° C., + Air, 20 ppm (RA + CA: 10 ppm each)
[9] = 3 days at 40° C., no air, 20 ppm (CA + RA: 10 ppm each)
[10] = 7 days at 40° C., + Air, 20 ppm (RA + CA: 10 ppm each)
[11] = 7 days at 40° C., no air, 20 ppm (CA + RA: 10 ppm each)
[12] = 14 days at 40° C., + Air, 20 ppm (RA + CA: 10 ppm each)
[13] = 14 days at 40° C., no air, 20 ppm (CA + RA: 10 ppm each)
[14] = 21 days at 40° C., + Air, 20 ppm (RA + CA: 10 ppm each)
[15] = 21 days at 40° C., no air, 20 ppm (CA + RA: 10 ppm each)

Compound | Panelist staling average, Day 5 Average (0 fresh, 10 most stale) ([1]; Aged) | Panelist staling average, Day 10 Average (0 fresh, 10 most stale) ([1]; Aged) | Panelist staling average, Day 5 Average (0 fresh, 10 most stale) ([1]; Fresh) | Panelist staling average, Day 10 Average (0 fresh, 10 most stale) ([1]; Fresh) | preservation of redox potential during pasteurization [2] | Redox Potential [2, 5] | 3-Methylbutanal in the headspace of aged beer ([3]; Day 0, 40° C., + air) [Parts per million] | 3-Methylbutanal in the headspace of aged beer ([3]; Day 0, 40° C., no air) [Parts per million] | 3-Methylbutanal in the headspace of aged beer ([3]; Day 3, 40° C., + air) [Parts per million] | 3-Methylbutanal in the headspace of aged beer ([3]; Day 3, 40° C., no air) [Parts per million] | 3-Methylbutanal in the headspace of aged beer ([3]; Day 7, 40° C., + air) [Parts per million] | 3-Methylbutanal in the headspace of aged beer ([3]; Day 7, 40° C., no air) [Parts per million] | 3-Methylbutanal in the headspace of aged beer ([3]; Day 14, 40° C., + air) [Parts per million] | 3-Methylbutanal in the headspace of aged beer ([3]; Day 14, 40° C., no air) [Parts per million] | 3-Methylbutanal in the headspace of aged beer ([3]; Day 21, 40° C., + air) [Parts per million] | 3-Methylbutanal in the headspace of aged beer ([3]; Day 21, 40° C., no air) [Parts per million] | DCIP Redox Value [4, 6] | DCIP Redox Value [4, 7] | DCIP Redox Value [4, 8] | DCIP Redox Value [4, 9] | also measured
CC(C)c1cc2c(c(O)c1O)[C@@]1(C(=O)O)CCCC(C)(C)[C@@H]1CC2 [CA, carnosic acid] | 3.00 | 4.375 | 2.89 | 2.25 | held at a higher level than the untreated, unpasteurized control | 45.0 | 3.44 | 3.24 | 3.85 | 3.13 | 3.68 | 2.98 | 3.45 | 1.82 | 5.09 | 4.66 | 93.8 | 90.6 | 89.1 | 89.1 | Redox Potential ([2]; no pasteurization): 67.4; DCIP Redox Value [4, 10]: 68.9; DCIP Redox Value [4, 11]: 83.5; DCIP Redox Value [4, 12]: 62.1; DCIP Redox Value [4, 13]: 82.3; DCIP Redox Value [4, 14]: 62.9; DCIP Redox Value [4, 15]: 86.9; effect on DCIP redox potential ([4]; no air): increases the DCIP redox potential of the starting beer; effect on DCIP redox potential ([4]; with added air): beneficial effect on aged beer that contains added air
O=C(/C=C/c1ccc(O)c(O)c1)O[C@H](Cc1ccc(O)c(O)c1)C(=O)O [RA, rosmarinic acid] | 3.22 | 2.75 | 0.78 | 2.5 | no potential to preserve the redox potential of beer during pasteurization | 13.4 | 3.13 | 4.12 | 4.14 | 3.05 | 3.95 | 2.73 | 4.28 | 3.03 | 5.06 | 4.85 | 76.0 | 76.3 | 63.4 | 76.2 | DCIP Redox Value [4, 10]: 48.3; DCIP Redox Value [4, 11]: 63.9; DCIP Redox Value [4, 12]: 25.1; DCIP Redox Value [4, 13]: 59.9; DCIP Redox Value [4, 14]: 26.6; DCIP Redox Value [4, 15]: 63.4; effect on DCIP redox potential ([4]; no air): no effect on the DCIP redox potential; effect on DCIP redox potential ([4]; with added air): not effective in preserving the DCIP redox potential
